Experiment: xn = mol fraction of the nth substance listed
Details: 100 kPa

CCCCCCCCCC(=O)OC + CCCCO
viscosity [mPa·s]
Details	293.15 K	298.15 K	303.15 K	308.15 K	313.15 K	318.15 K	323.15 K
x1 = 0.09981	2.423	2.148	1.914	1.709	1.538	1.386	1.254
x1 = 0.1	–	2.153	1.921	1.715	1.537	1.384	–
x1 = 0.2	–	1.948	1.745	1.569	1.419	–	–
x1 = 0.2003	2.159	1.939	1.74	1.566	1.418	1.287	1.173
x1 = 0.3	–	1.841	1.656	1.504	1.359	–	–
x1 = 0.3001	2.041	1.827	1.646	1.489	1.353	1.235	1.13
x1 = 0.3993	1.973	1.773	1.602	1.454	1.326	1.214	1.116
x1 = 0.4	–	1.794	1.616	1.464	1.333	–	–
x1 = 0.5	–	1.765	1.597	1.452	1.332	–	–
x1 = 0.501	1.95	1.755	1.59	1.446	1.322	1.213	1.117
x1 = 0.6001	–	1.77	1.6	1.458	1.331	–	–
x1 = 0.6002	1.944	1.751	1.589	1.448	1.325	1.218	1.124
x1 = 0.6999	–	1.779	1.613	1.471	1.347	–	–
x1 = 0.7028	1.958	1.767	1.603	1.463	1.341	1.234	1.14
x1 = 0.7953	1.986	1.793	1.629	1.487	1.364	1.257	1.163
x1 = 0.7987	–	1.808	1.646	1.497	1.372	–	–
x1 = 0.8967	–	1.846	1.678	1.532	1.407	–	–
x1 = 0.8999	2.03	1.835	1.668	1.524	1.399	1.29	1.194

Source: the CheMixHub viscosity set
